Results: patent publication US4481201A, “Pharmaceutical composition containing N,N^3 -di-(β-bromopropionyl)-N^1,N^2 -dispirotripiperazinium dichloride” (Vsesojuzny Nauchno-Issledovatelsky Khimoko-Farmasevtichesky …, priority 1981, dated 1984)

Tests used:
[1] = tested on: leukemia La; assay: Life span of mice with transplantable leukemia La; assay type: in vivo, inbred mice; settings: leukemia La, MTD
From the text: (§1) The antitumor activity has been studied on white rats weighing 110-130 g, as well as on white noninbred and inbred mice weighing 17-21 g with ligated tumors. The treatment is started 5-7 days transplanting of solid tumors and the following day after the transplanting of leukotic strains. Use has been made of the following transplantable strains of the tumors:
(§2) (3) inbred mice: leukemia La, leukemia L1210 and P-388.
(§3) The activity of compounds relative to leukosis has been assessed by the life span (It) of treated animals as compared to the control ones. It --index of suppression of leukosis development is calculated by the formula: [formula]

[2] = tested on: sarcoma 45; assay: Growth of graft sarcoma 45 in rats; assay type: in vivo; settings: for Change in the animal body weight, test / It, % tumor growth suppression index: rats
From the text: as §1
(§4) (1) rats: Ienssen's sarcoma, sarcoma 45, sarcoma M-1, sarcoma 536;
(§5) The compounds of the general formula (I), wherein X represents Cl^- (compound 1), Br^- (compound 2) are well-soluble in an isotonic solution of sodium chloride and they are administered intraperitoneally. The doses of the compounds have been calculated in mg per kg of the animal bodyweight.

[3] = Solubility; assay type: physicochemical
Experimental: as §5
To a mixture of 3 g of N^1,N^2 -dispirotripiperazinium dichloride, 1.5 g of lithium hydroxide, 1 ml of water and 10 ml of ether a solution of 5.2 g of β-bromopropionic acid chlorid in 5 ml of ether is added under vigorous stirring and at a temperature of 5° to 10° C. The reaction mass is stirred for 2 hours at the temperature of 15° C. The residue is filtered off, dissolved in 10 ml of water; the resulting aqueous solution is poured in 100 ml of methanol.

[4] = tested on: sarcoma 536; assay: Growth of graft sarcoma 536 in rats; assay type: in vivo
From the text: as §1, §4, §5

[5] = tested on: Ienssen's sarcoma; assay: Growth of graft Ienssen sarcoma in rats; assay type: in vivo
From the text: as §1, §4, §5

[6] = tested on: sarcoma AK; assay: Growth of graft sarcoma AK in mice; assay type: in vivo, noninbred white mice; settings: mice, at MTD (dose not given)
From the text: as §1
(§6) (2) noninbred white mice: sarcoma 180, sarcoma AK, sarcoma 37, carcinoma HK;
as §5

[7] = Toxicity on single and repeated administration to mice; assay type: in vivo
Experimental: (3) acute toxicity of the compounds upon a single and repeated administration to white noninbred mice places into standard cages with 8 animals in each.
In the investigation of toxic properties of the compounds according to the present invention there has been determined the absolutely lethal dose (DL95), average lethal dose (DL50) and MTD. For compounds 1 and 2 there were determined DL95 and DL50 on healthy white mice with the body mass of 18-21 g at a single and repeated (once a day, daily for 7 days) intraperitoneal administration.

[8] = tested on: sarcoma M-1; assay: Growth of graft sarcoma M-1 in rats; assay type: in vivo
From the text: as §1, §4, §5

[9] = tested on: sarcoma 180; assay: Growth of graft sarcoma 180 in mice; assay type: in vivo, noninbred white mice; settings: mice, at MTD (dose not given)
From the text: as §1, §6, §5

[10] = tested on: transplantable leukemia; assay: Activity relative to leukoses of inbred mice (overall); assay type: in vivo
From the text: (2) activity of the compounds relative to leukoses of inbred mice;
as §1, §2, §3

[11] = tested on: sarcoma 37; assay: Growth of graft sarcoma 37 in mice; assay type: in vivo, noninbred white mice; settings: mice, at MTD (dose not given)
From the text: as §1, §6, §5

[12] = 44 mg/kg intraperitoneally, 7 injections
[13] = 83 mg/kg intraperitoneally, 7 injections
[14] = rats, 81 mg/kg intraperitoneally, 6 injections
[15] = rats, 21 mg/kg intraperitoneally, 44 injections
[16] = rats, 39 mg/kg intraperitoneally, 5 injections
[17] = rats, 86 mg/kg intraperitoneally, 4 injections
[18] = rats, 88 mg/kg intraperitoneally, 5 injections
[19] = rats, 2,1 mg/kg intraperitoneally, 7 injections
[20] = rats, 4,2 mg/kg intraperitoneally, 7 injections
[21] = mice, single intraperitoneal administration

O=C(CCBr)N1CC[N+]2(CC1)CC[N+]1(CCN(C(=O)CCBr)CC1)CC2 [Compound 2]
extension of life span of treated mice as compared to the control [1]: 2 times | Maximum tolerable dose (MTD) ([2]; rats with sarcoma 45, repeated intraperitoneal administration): 95 mg/kg | Change in the animal body weight, test ([2]; 20 mg/kg intraperitoneally, 7 injections): -12 g | It, % tumor growth suppression index ([2]; 20 mg/kg intraperitoneally, 7 injections, 20 mg/kg): +66% | Change in the animal body weight, test [2, 12]: +4 g | It, % tumor growth suppression index [2, 12]: +96% | Change in the animal body weight, test [2, 13]: +6 g | It, % tumor growth suppression index [2, 13]: +96% | Change in the animal body weight, test ([2]; 95 mg/kg intraperitoneally (MTD), 6 injections): -6 g | solubility in an isotonic solution of sodium chloride [3]: well-soluble | Maximum tolerable dose (MTD) ([4]; rats with sarcoma 536, repeated intraperitoneal administration): 133 mg/kg | Change in the animal body weight, test [4, 14]: -15 g | It, % tumor growth suppression index [4, 14]: +52% | Change in the animal body weight, test ([4]; rats, 133 mg/kg intraperitoneally (MTD), 5 injections): -14 g | Ch/T chemotherapeutical index (ratio of MTD to minimum effective dose) ([5]; Ienssen sarcoma): 50 | Maximum tolerable dose (MTD) ([5]; rats with Ienssen sarcoma, repeated intraperitoneal administration): 149 mg/kg | Change in the animal body weight, test ([5]; rats, 8 mg/kg intraperitoneally, 7 injections): +21 g | Change in the animal body weight, test [5, 15]: +34 g | It, % tumor growth suppression index [5, 15]: +90% | Change in the animal body weight, test [5, 16]: +14 g | It, % tumor growth suppression index [5, 16]: +99% | Change in the animal body weight, test [5, 17]: +1 g | It, % tumor growth suppression index [5, 17]: +99% | Change in the animal body weight, test [5, 18]: +1 g | It, % tumor growth suppression index [5, 18]: +99% | Change in the animal body weight, test ([5]; rats, 149 mg/kg intraperitoneally (MTD), 5 injections): -30 g | Change in the animal body weight, test [5, 19]: +5 g | It, % tumor growth suppression index [5, 19]: +46% | Change in the animal body weight, test [5, 20]: +6 g | It, % tumor growth suppression index [5, 20]: +35% | suppression of sarcoma AK [6]: 81% | DL50 (average lethal dose) ([7]; mice, repeated intraperitoneal administration (once a day, daily for 7 days)): 150 mg/kg | DL50 (average lethal dose) [7, 21]: 1,150 mg/kg | DL95 (absolutely lethal dose) [7, 21]: 1,250 mg/kg | MTD ([7]; repeated intraperitoneal administration): 125 mg/kg | Maximum tolerable dose (MTD) ([8]; rats with sarcoma M-1, repeated intraperitoneal administration): 95 mg/kg | Change in the animal body weight, test ([8]; rats, 95 mg/kg intraperitoneally (MTD), 6 injections): +8 g | suppression of sarcoma 180 [9]: 52% | effect on transplantable leukemia in mice [10]: clearly pronounced antileukotic effect | suppression of sarcoma 37 [11]: 60%
